Literature values as cited in patent US10285958B2, “Genotype- or phenotype-based drug formulation” (BAYER AKTIENGESELLSCHAFT, priority 2012, dated 2019).
Read-outs that look alike come from different tables or passages of the source. Values belong to the molecule of their own block, whether it stands above or below them.

Legend:
[1] = target: polymorphic cytochrome P450 (CYP) 2D6 (Homo sapiens, UniProt P10635); details: humans
polymorphic cytochrome P450 (CYP) 2D6, sequence (P10635 whole entry): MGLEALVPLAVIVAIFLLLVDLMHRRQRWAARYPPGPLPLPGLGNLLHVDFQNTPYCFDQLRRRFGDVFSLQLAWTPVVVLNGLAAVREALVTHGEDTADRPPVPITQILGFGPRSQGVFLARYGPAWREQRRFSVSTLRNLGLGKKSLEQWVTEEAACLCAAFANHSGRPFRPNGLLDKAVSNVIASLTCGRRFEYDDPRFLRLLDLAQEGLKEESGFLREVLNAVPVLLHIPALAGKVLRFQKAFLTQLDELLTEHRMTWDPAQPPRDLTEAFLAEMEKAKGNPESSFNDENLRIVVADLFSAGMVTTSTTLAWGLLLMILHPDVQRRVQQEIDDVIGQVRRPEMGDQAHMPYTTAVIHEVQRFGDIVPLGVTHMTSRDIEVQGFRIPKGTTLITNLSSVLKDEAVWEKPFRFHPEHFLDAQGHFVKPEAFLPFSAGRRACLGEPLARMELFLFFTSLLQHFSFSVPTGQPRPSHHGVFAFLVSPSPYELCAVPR

- time until steady-state concentration of endoxifen is achieved (standard dosage 20 mg of tamoxifen, European patients of CYP2D6 EM genotype or phenotype): about 80 days
Compound: CC/C(=C(\c1ccccc1)c1ccc(OCCN(C)C)cc1)c1ccccc1 [tamoxifen]
- endoxifen concentrations after increased tamoxifen dose (up to 40 mg of tamoxifen per day as two individual doses, CYP2D6 IMs and PMs, versus EMs on 20 mg): did not lead to the endoxifen concentrations observed in CYP2D6 EMs

- endoxifen concentration in blood under tamoxifen therapy (CYP2D6 IM, versus EM or UM phenotype): distinctly below
- endoxifen concentration in blood under tamoxifen therapy (CYP2D6 PM): very low
Compound: CC/C(=C(\c1ccc(O)cc1)c1ccc(OCCNC)cc1)c1ccccc1 [endoxifen]

- formation of endoxifen from N-desmethyltamoxifen via CYP2D6 [1]: exclusively
Compound: CC/C(=C(\c1ccccc1)c1ccc(OCCNC)cc1)c1ccccc1 [N-desmethyltamoxifen]
